Earlier results in article PMC5646416 (Journal of clinical pharmacy and therapeutics, 2017).

Conditions: single-dose pharmacokinetic studies

Row | Structure (SMILES) | AUC higher in rs4149056 CC homozygotes than in rs4149056 TT homozygotes
1 | O=C(O)C[C@H](O)C[C@H](O)/C=C/c1c(C2CC2)nc2ccccc2c1-c1ccc(F)cc1 [pitavastatin] | 162–191%
2 | CC[C@H](C)C(=O)O[C@H]1C[C@H](O)C=C2C=C[C@H](C)[C@H](CC[C@@H](O)C[C@@H](O)CC(=O)O)[C@H]21 [pravastatin] | 57–130%
3 | CC(C)c1nc(N(C)S(C)(=O)=O)nc(-c2ccc(F)cc2)c1/C=C/[C@@H](O)C[C@@H](O)CC(=O)O [rosuvastatin] | 62–117%
4 | CCC(C)(C)C(=O)O[C@H]1C[C@@H](C)C=C2C=C[C@H](C)[C@H](CC[C@@H](O)C[C@@H](O)CC(=O)O)[C@H]21 [simvastatin acid] | 221%
